Results taken from the NIST ThermoML archive (doi:10.1021/je900077g).
Numbers after ± are expanded uncertainties.

Assay: excess molar enthalpy (molar enthalpy of mixing); xn = mol fraction of the nth substance listed
Conditions: 308.15 K, 101 kPa, Liquid, Calvet calorimetry

C1COCCO1 [1,4-dioxane] + C1CCCCC1
Conditions | excess molar enthalpy [kJ/mol]
x2 = 0.101 | 0.57 ± 0.014
x2 = 0.204 | 1.05 ± 0.015
x2 = 0.288 | 1.33 ± 0.015
x2 = 0.408 | 1.56 ± 0.016
x2 = 0.506 | 1.62 ± 0.016
x2 = 0.606 | 1.57 ± 0.016
x2 = 0.705 | 1.44 ± 0.015
x2 = 0.803 | 1.15 ± 0.015
x2 = 0.9 | 0.695 ± 0.015

C1CCOCC1 [tetrahydropyran] + C1CCCCC1
Conditions | excess molar enthalpy [kJ/mol]
x2 = 0.101 | 0.157 ± 0.011
x2 = 0.2 | 0.294 ± 0.011
x2 = 0.3 | 0.412 ± 0.011
x2 = 0.4 | 0.49 ± 0.011
x2 = 0.499 | 0.526 ± 0.011
x2 = 0.606 | 0.519 ± 0.011
x2 = 0.699 | 0.461 ± 0.011
x2 = 0.8 | 0.355 ± 0.011
x2 = 0.9 | 0.198 ± 0.011

C1CCOCC1 [tetrahydropyran] + C1COCCO1
Conditions | excess molar enthalpy [kJ/mol]
x1 = 0.104 | 0.149 ± 0.01
x1 = 0.201 | 0.249 ± 0.01
x1 = 0.299 | 0.315 ± 0.01
x1 = 0.398 | 0.352 ± 0.011
x1 = 0.497 | 0.361 ± 0.011
x1 = 0.612 | 0.342 ± 0.011
x1 = 0.716 | 0.296 ± 0.01
x1 = 0.8 | 0.235 ± 0.01
x1 = 0.9 | 0.135 ± 0.01
